Several values for one entry are separate records, joined by “and”; a condition that tells them apart may be missing. Equal values may be shown once. Read-outs that look alike come from different tables or passages of the source.
How the values were obtained:
[1] = Passive artificial membrane permeability (PAMPA);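 on Permeability% Average: top well sample relative to theoretical equilibrium sample by TIC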
human α-thrombin = human α-thrombin (Homo sapiens, UniProt P00734); test: Protease inhibition, Ki for human α-thrombin (fluorogenic substrate Z-Gly-Gly-Arg-AMC); assay type: biochemical; conditions: for Human alpha thrombin inhibition, slope normalized to DMSO: replicates R1-R3
Description: (§1) The inhibition constants (Ki) of cyclic peptides were calculated by measuring thrombin inhibition in the presence of different concentrations of the cyclic peptides. […] Human α-thrombin (Molecular Innovations) and rat α-thrombin (Molecular Innovations) were used at final concentrations of 2 nM and 3 nM, respectively, and fluorogenic substrate (Z-Gly-Gly-Arg-AMC, Bachem) was used at a concentration of 50 μM. Enzymatic activity was determined by measuring fluorescent gain on a Tecan Infinite M200 Pro microplate reader (excitation: 360 nm, emission: 465 nm) or a PHERAstar FSX microplate reader (excitation: 380 nm, emission: 440 nm) for 30 min at 25 °C with a fluorescent readout every 3 min. The two instruments were controlled with Tecan Infinite M200 Pro instrument software (iControl, version 1.12) and PHERAstar FSX software (version 5.70, edition 8), respectively. Protease inhibition was calculated by comparing the enzymatic activity to a control without cyclic peptide.
(§2) Half maximal inhibitory concentration (IC50) values were determined using a four-parameter logistic regression model in GraphPad Prism 9 to fit sigmoidal curves to the acquired data points according to equation (2) below.2 y=b+a−b/1+10^(logIC50−x)p where a and b represent the measured inhibition maximum and minimum, respectively; x is the logarithm of peptide concentration; y is the thrombin activity compared to a control without the cyclic peptide; and p is the Hill coefficient.
(§3) Ki values were calculated using the IC50 and the Cheng–Prusoff equation (equation (3)).3 Ki=IC50/1+S0/Km where Km is the Michaelis–Menten constant of the enzyme for the substrate used in the assay, and [S]0 is the initial substrate concentration.

rat α-thrombin = molecular target: T1, rat α-thrombin (Rattus norvegicus, UniProt P18292); test: Protease inhibition, Ki for rat α-thrombin (fluorogenic substrate Z-Gly-Gly-Arg-AMC); assay type: biochemical; conditions: for Rat alpha thrombin inhibition, slope normalized to DMSO: replicates R1-R3
T1 construct: rat α-thrombin (Molecular Innovations) were used at final concentrations of 2 nM and 3 nM; purchased Molecular Innovations
Description: as §1, §2, §3

[2] = peptide concentration 1.00E+02 uM
[3] = peptide concentration 1.19E-05 uM
[4] = peptide concentration 1.22E-02 uM
[5] = peptide concentration 1.25E+01 uM
[6] = peptide concentration 1.53E-03 uM
[7] = peptide concentration 1.56E+00 uM
[8] = peptide concentration 1.91E-04 uM
[9] = peptide concentration 1.95E-01 uM
[10] = peptide concentration 2.38E-05 uM
[11] = peptide concentration 2.44E-02 uM
[12] = peptide concentration 2.50E+01 uM
[13] = peptide concentration 3.05E-03 uM
[14] = peptide concentration 3.12E+00 uM
[15] = peptide concentration 3.81E-04 uM
[16] = peptide concentration 3.91E-01 uM
[17] = peptide concentration 4.77E-05 uM
[18] = peptide concentration 4.88E-02 uM
[19] = peptide concentration 5.00E+01 uM
[20] = peptide concentration 6.10E-03 uM
[21] = peptide concentration 6.25E+00 uM
[22] = peptide concentration 7.63E-04 uM
[23] = peptide concentration 7.81E-01 uM
[24] = peptide concentration 9.54E-05 uM
[25] = peptide concentration 9.77E-02 uM

PAMPA permeability: % permeability ([1]; 50 μM, 12–18 h, acceptor concentration relative to equilibrium): 32 ± 6%
Permeability% (single replicates R1–R3) ([1]; 50 μM, 13 h (Fig. 5d)): 25.39% and 36.84% and 33.06%
Permeability% Average ([1]; 50 μM, 13 h (Fig. 5d)): 31.8%
Papp at 50 μM ([1]; PAMPA, pH 7.4): 3.47 ×10⁻⁶ cm/s
Ki (human α-thrombin; average of R1-R3, read-out: Human alpha thrombin inhibition, Ki Average): 13.5 µM
Human alpha thrombin inhibition, slope normalized to DMSO (human α-thrombin; [2]): 31.6 and 35.9 and 30.7
Human alpha thrombin inhibition, slope normalized to DMSO (human α-thrombin; [3]): 101.3 and 100.2 and 102.3
Human alpha thrombin inhibition, slope normalized to DMSO (human α-thrombin; [4]): 84.3 and 92.4 and 75.3
Human alpha thrombin inhibition, slope normalized to DMSO (human α-thrombin; [5]): 48.4 and 51.8 and 74.4
Human alpha thrombin inhibition, slope normalized to DMSO (human α-thrombin; [6]): 103.9 and 109.7 and 90.7
Human alpha thrombin inhibition, slope normalized to DMSO (human α-thrombin; [7]): 99.7 and 78.4 and 78.8
Human alpha thrombin inhibition, slope normalized to DMSO (human α-thrombin; [8]): 77.5 and 96.9 and 61.6
Human alpha thrombin inhibition, slope normalized to DMSO (human α-thrombin; [9]): 89.1 and 92.2 and 110.9
Human alpha thrombin inhibition, slope normalized to DMSO (human α-thrombin; [10]): 100.0 and 95.0 and 108.2
Human alpha thrombin inhibition, slope normalized to DMSO (human α-thrombin; [11]): 94.6 and 85.5 and 101.2
Human alpha thrombin inhibition, slope normalized to DMSO (human α-thrombin; [12]): 53.9 and 24.7 and 59.2
Human alpha thrombin inhibition, slope normalized to DMSO (human α-thrombin; [13]): 85.8 and 106.8 and 92.3
Human alpha thrombin inhibition, slope normalized to DMSO (human α-thrombin; [14]): 95.0 and 56.6 and 60.0
Human alpha thrombin inhibition, slope normalized to DMSO (human α-thrombin; [15]): 92.8 and 100.9 and 102.1
Human alpha thrombin inhibition, slope normalized to DMSO (human α-thrombin; [16]): 92.5 and 76.5 and 47.1
Human alpha thrombin inhibition, slope normalized to DMSO (human α-thrombin; [17]): 103.7 and 96.6 and 101.3
Human alpha thrombin inhibition, slope normalized to DMSO (human α-thrombin; [18]): 96.6 and 92.9 and 84.5
Human alpha thrombin inhibition, slope normalized to DMSO (human α-thrombin; [19]): 32.5 and 38.9 and 43.6
Human alpha thrombin inhibition, slope normalized to DMSO (human α-thrombin; [20]): 87.4 and 95.7 and 97.4
Human alpha thrombin inhibition, slope normalized to DMSO (human α-thrombin; [21]): 82.6 and 51.0 and 64.7
Human alpha thrombin inhibition, slope normalized to DMSO (human α-thrombin; [22]): 95.6 and 106.3 and 100.0
Human alpha thrombin inhibition, slope normalized to DMSO (human α-thrombin; [23]): 102.1 and 69.9 and 79.9
Human alpha thrombin inhibition, slope normalized to DMSO (human α-thrombin; [24]): 104.1 and 95.0 and 102.4
Human alpha thrombin inhibition, slope normalized to DMSO (human α-thrombin; [25]): 95.1 and 96.0 and 81.6
Ki (rat α-thrombin; average of R1-R3, read-out: Rat alpha thrombin inhibition, Ki Average): 5.05 µM
Rat alpha thrombin inhibition, slope normalized to DMSO (rat α-thrombin; [2]): 15.8 and 16.4 and 8.2
Rat alpha thrombin inhibition, slope normalized to DMSO (rat α-thrombin; [3]): 106.1 and 100.1 and 101.4
Rat alpha thrombin inhibition, slope normalized to DMSO (rat α-thrombin; [4]): 97.4 and 88.6 and 86.5
Rat alpha thrombin inhibition, slope normalized to DMSO (rat α-thrombin; [5]): 49.8 and 47.2 and 35.5
Rat alpha thrombin inhibition, slope normalized to DMSO (rat α-thrombin; [6]): 108.8 and 100.7 and 95.7
Rat alpha thrombin inhibition, slope normalized to DMSO (rat α-thrombin; [7]): 89.9 and 88.6 and 50.7
Rat alpha thrombin inhibition, slope normalized to DMSO (rat α-thrombin; [8]): 112.7 and 100.1 and 96.0
Rat alpha thrombin inhibition, slope normalized to DMSO (rat α-thrombin; [9]): 101.4 and 102.2 and 81.9
Rat alpha thrombin inhibition, slope normalized to DMSO (rat α-thrombin; [10]): 107.4 and 102.3 and 104.3
Rat alpha thrombin inhibition, slope normalized to DMSO (rat α-thrombin; [11]): 116.5 and 84.1 and 102.5
Rat alpha thrombin inhibition, slope normalized to DMSO (rat α-thrombin; [12]): 36.8 and 26.2 and 18.8
Rat alpha thrombin inhibition, slope normalized to DMSO (rat α-thrombin; [13]): 100.6 and 93.4 and 89.7
Rat alpha thrombin inhibition, slope normalized to DMSO (rat α-thrombin; [14]): 83.7 and 72.5 and 77.4
Rat alpha thrombin inhibition, slope normalized to DMSO (rat α-thrombin; [15]): 105.1 and 100.1 and 102.4
Rat alpha thrombin inhibition, slope normalized to DMSO (rat α-thrombin; [16]): 105.0 and 93.1 and 59.9
Rat alpha thrombin inhibition, slope normalized to DMSO (rat α-thrombin; [17]): 108.7 and 101.6 and 109.2
Rat alpha thrombin inhibition, slope normalized to DMSO (rat α-thrombin; [18]): 113.8 and 100.8 and 93.5
Rat alpha thrombin inhibition, slope normalized to DMSO (rat α-thrombin; [19]): 30.2 and 11.5 and 16.5
Rat alpha thrombin inhibition, slope normalized to DMSO (rat α-thrombin; [20]): 96.7 and 102.7 and 104.0
Rat alpha thrombin inhibition, slope normalized to DMSO (rat α-thrombin; [21]): 71.7 and 61.7 and 68.8
Rat alpha thrombin inhibition, slope normalized to DMSO (rat α-thrombin; [22]): 91.7 and 100.9 and 102.6
Rat alpha thrombin inhibition, slope normalized to DMSO (rat α-thrombin; [23]): 88.3 and 82.4 and 91.2
Rat alpha thrombin inhibition, slope normalized to DMSO (rat α-thrombin; [24]): 111.4 and 103.7 and 104.6
Rat alpha thrombin inhibition, slope normalized to DMSO (rat α-thrombin; [25]): 106.1 and 99.6 and 107.1
IC50 (rat α-thrombin; single replicates R1-R3, read-out: Rat alpha thrombin inhibition, IC50): 11.8 µM and 9.26 µM and 6.34 µM
Ki (rat α-thrombin; single replicates R1-R3, read-out: Rat alpha thrombin inhibition, Ki): 6.5 µM and 5.12 µM and 3.51 µM
SMILES: O=C1C[C@H]2CCCN2C(=O)[C@H](Cc2ccccc2)NC(=O)[C@@H](NC(=O)c2ccc(Cl)s2)CC=CCCN1 [compound 38]

From article PMC11062899, “De novo development of small cyclic peptides that are orally bioavailable” (Nature Chemical Biology, 2023)
